# Experimental data: ChEMBL document CHEMBL1201862, “PubChem BioAssay data set” (2004)
#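 In this assay, cells in 96-well plates receive the compound at five concentrations for 48 hours. Endpoints are linearly interpolated between the surrounding concentrations. GI50 is the concentration that inhibits growth by half.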 The source made the active and inactive calls. Cut-off read from the data, not from the text of the source: active = GI50 up to about 1.1 µM and inactive = higher. Where a SMILES comes first, the peptide text is derived from it. The star is where a group is joined. Boc = CC(C)(C)OC(=O)*
# Legend:
# Experiment in all cases: NCI anticancer screen, dose series, 48 h
# [1] = system: LOX IMVI
# [2] = system: TK-10
# [3] = system: SN12C
# [4] = system: CCRF-CEM
# [5] = system: SK-MEL-2
# [6] = system: SNB-19
# [7] = system: K562
# [8] = system: HL-60
# [9] = system: UACC-257
# [10] = system: IGROV-1
# [11] = system: COLO 205
# [12] = system: HOP-92
# [13] = system: CAKI-1
# [14] = system: HCT-15
# [15] = system: DU-145
# [16] = system: RPMI-8226
# [17] = system: RXF 393
# [18] = system: NCI-H226
# [19] = system: Hs-578T
SMILES,GI50 [1],GI50 [2],GI50 [3],GI50 [4],GI50 [5],GI50 [6],GI50 [7],GI50 [8],GI50 [9],GI50 [10],GI50 [11],GI50 [12],GI50 [13],GI50 [14] [µM],GI50 [15],GI50 [16],GI50 [17],GI50 [18],GI50 [19]
CNC(=O)CNC(=O)C(NC(=O)CNC(=O)C1CCCN1C(=O)C(C)NC(=O)C(NC(=O)OC(C)(C)C)C(C)C)C(C)C (configuration not stated) (Boc-VAPGVG-NHMe; configuration not given here),> 100 µM (inactive),> 100 µM (inactive),> 100 µM (inactive),> 100 µM (inactive),> 100 µM (inactive),> 100 µM (inactive),> 100 µM (inactive),> 100 µM (inactive),> 100 µM (inactive),> 100 µM (inactive),> 100 µM (inactive),> 100 µM (inactive),> 100 µM (inactive),> 100,> 100 µM (inactive),> 100 µM (inactive),–,–,–
CC(C)(C)c1cc(C(=O)O)c(C(c2ccccc2)c2ccccc2C(=O)O)c(C(=O)O)c1 (configuration not stated),> 100 µM (inactive),> 100 µM (inactive),21.9 µM (inactive),> 100 µM (inactive),> 100 µM (inactive),> 100 µM (inactive),> 100 µM (inactive),> 100 µM (inactive),> 100 µM (inactive),–,33.8 µM (inactive),–,> 100 µM (inactive),> 100,–,–,> 100 µM (inactive),35 µM (inactive),–
COc1ccc(N2C(=O)CC(C3CC(C(C)(C)C)CCC3=O)C2=O)cc1 (configuration not stated),–,> 100 µM (inactive),> 100 µM (inactive),> 100 µM (inactive),–,> 100 µM (inactive),> 100 µM (inactive),> 100 µM (inactive),> 100 µM (inactive),> 100 µM (inactive),> 100 µM (inactive),–,> 100 µM (inactive),> 100,> 100 µM (inactive),> 100 µM (inactive),> 100 µM (inactive),> 100 µM (inactive),> 100 µM (inactive)
C=C1C(=O)O[C@@H]2C(=O)[C@@H](C)CCC/C(C)=C/CC[C@@]3(C)O[C@@H]3C[C@@H]12,18.9 µM (inactive),27.7 µM (inactive),40.3 µM (inactive),11.8 µM (inactive),> 100 µM (inactive),> 100 µM (inactive),16.4 µM (inactive),16.5 µM (inactive),56.8 µM (inactive),15.7 µM (inactive),24 µM (inactive),13.2 µM (inactive),19.9 µM (inactive),20.2,75.2 µM (inactive),18.6 µM (inactive),3.75 µM (inactive),> 100 µM (inactive),–
CNC(=O)CNC(=O)C(NC(=O)CNC(=O)C1CCCN1C(=O)C(C)NC(=O)C(NC(C)=O)C(C)C)C(C)C (configuration not stated) (Ac-VAPGVG-NHMe; configuration not given here),> 100 µM (inactive),> 100 µM (inactive),> 100 µM (inactive),> 100 µM (inactive),> 100 µM (inactive),> 100 µM (inactive),> 100 µM (inactive),> 100 µM (inactive),> 100 µM (inactive),> 100 µM (inactive),> 100 µM (inactive),> 100 µM (inactive),> 100 µM (inactive),> 100,> 100 µM (inactive),> 100 µM (inactive),–,–,–
Nc1cc(N2CCOCC2)nc(=O)n1-c1ccc(Cl)cc1,> 100 µM (inactive),–,> 100 µM (inactive),> 100 µM (inactive),> 100 µM (inactive),> 100 µM (inactive),> 100 µM (inactive),8.38 µM (inactive),> 100 µM (inactive),> 100 µM (inactive),> 100 µM (inactive),> 100 µM (inactive),> 100 µM (inactive),> 100,> 100 µM (inactive),> 100 µM (inactive),–,> 100 µM (inactive),–
CC(C)=NN/C(=N\c1ccc(Cl)cc1)NS(=O)(=O)c1cc2ccccc2s1,77.3 µM (inactive),87.9 µM (inactive),50.7 µM (inactive),40.4 µM (inactive),65.8 µM (inactive),> 100 µM (inactive),23 µM (inactive),29.2 µM (inactive),55.3 µM (inactive),34.2 µM (inactive),46.5 µM (inactive),38.9 µM (inactive),97.9 µM (inactive),71.8,> 100 µM (inactive),29 µM (inactive),–,> 100 µM (inactive),> 100 µM (inactive)
NC1CC(=O)c2cc(Br)sc21 (configuration not stated),–,> 100 µM (inactive),> 100 µM (inactive),> 100 µM (inactive),> 100 µM (inactive),> 100 µM (inactive),> 100 µM (inactive),> 100 µM (inactive),> 100 µM (inactive),> 100 µM (inactive),> 100 µM (inactive),–,> 100 µM (inactive),> 100,> 100 µM (inactive),> 100 µM (inactive),> 100 µM (inactive),–,–
O=C(O)C1Cc2ccccc2OC1=O (configuration not stated),–,> 100 µM (inactive),> 100 µM (inactive),–,> 100 µM (inactive),> 100 µM (inactive),> 100 µM (inactive),–,> 100 µM (inactive),> 100 µM (inactive),> 100 µM (inactive),–,> 100 µM (inactive),> 100,> 100 µM (inactive),> 100 µM (inactive),> 100 µM (inactive),> 100 µM (inactive),> 100 µM (inactive)
CC1(C)CS(=O)(=O)CC(C)(C)C(=N/N)/C1=N\N,> 100 µM (inactive),> 100 µM (inactive),> 100 µM (inactive),–,> 100 µM (inactive),> 100 µM (inactive),> 100 µM (inactive),> 100 µM (inactive),> 100 µM (inactive),> 100 µM (inactive),> 100 µM (inactive),> 100 µM (inactive),> 100 µM (inactive),> 100,> 100 µM (inactive),–,–,–,> 100 µM (inactive)
CC(C)=CC[C@H]1C[C@]2(CC=C(C)C)C(=O)[C@@](CC=C(C)C)(C(=O)C(C(=O)c3ccccc3)=C2O)C1(C)C [6-EPI-CLUSIANONE],3.46 µM (inactive),5.15 µM (inactive),3.49 µM (inactive),–,2.67 µM (inactive),5.21 µM (inactive),3.87 µM (inactive),–,4.71 µM (inactive),3.82 µM (inactive),3.94 µM (inactive),4.31 µM (inactive),4.44 µM (inactive),5.04,–,3.37 µM (inactive),6.75 µM (inactive),14.1 µM (inactive),14.3 µM (inactive)
CC(=O)Nc1ccc2cc(C#N)c(=O)[nH]c2n1,> 100 µM (inactive),> 100 µM (inactive),> 100 µM (inactive),–,> 100 µM (inactive),> 100 µM (inactive),> 100 µM (inactive),–,> 100 µM (inactive),> 100 µM (inactive),> 100 µM (inactive),> 100 µM (inactive),> 100 µM (inactive),> 100,–,> 100 µM (inactive),> 100 µM (inactive),> 100 µM (inactive),–
NC1(c2cc3ccccc3s2)CCCCCC1,17.9 µM (inactive),15.4 µM (inactive),16.8 µM (inactive),16 µM (inactive),10.4 µM (inactive),18.2 µM (inactive),10.1 µM (inactive),14.8 µM (inactive),16.3 µM (inactive),14.7 µM (inactive),12.6 µM (inactive),14 µM (inactive),13.8 µM (inactive),17.1,17.2 µM (inactive),–,12.7 µM (inactive),19.8 µM (inactive),–
Cc1cc2c(c(S(=O)(=O)c3ccc(Cl)cc3[N+](=O)[O-])c1)NCCC2,5.57 µM (inactive),> 100 µM (inactive),> 100 µM (inactive),–,> 100 µM (inactive),> 100 µM (inactive),–,> 10 µM (inactive),–,> 100 µM (inactive),> 100 µM (inactive),–,–,70.8,94.4 µM (inactive),58.5 µM (inactive),> 100 µM (inactive),> 100 µM (inactive),> 100 µM (inactive)
Cc1ccc(/C=C2\CCCc3ccccc3C2=O)cc1,14.9 µM (inactive),25.1 µM (inactive),11.7 µM (inactive),15.1 µM (inactive),2.38 µM (inactive),19.5 µM (inactive),12.2 µM (inactive),11.2 µM (inactive),21.9 µM (inactive),7.14 µM (inactive),4.94 µM (inactive),18.5 µM (inactive),27.2 µM (inactive),6.64,22.2 µM (inactive),16.3 µM (inactive),–,6.46 µM (inactive),12.4 µM (inactive)
COC(=O)C1C2C=CC(C2)N1S(=O)(=O)c1ccccc1 (configuration not stated),–,> 100 µM (inactive),> 100 µM (inactive),–,> 100 µM (inactive),> 100 µM (inactive),> 100 µM (inactive),–,–,–,> 100 µM (inactive),33 µM (inactive),> 100 µM (inactive),> 100,> 100 µM (inactive),> 100 µM (inactive),> 100 µM (inactive),–,–
COc1cc2c(c(OC)c1)C(C)=NC(C)C2 (configuration not stated),> 100 µM (inactive),> 100 µM (inactive),> 100 µM (inactive),> 100 µM (inactive),–,> 100 µM (inactive),> 100 µM (inactive),> 100 µM (inactive),> 100 µM (inactive),> 100 µM (inactive),> 100 µM (inactive),–,> 100 µM (inactive),> 100,> 100 µM (inactive),> 100 µM (inactive),–,> 100 µM (inactive),> 100 µM (inactive)
